Data: PMC5934680, “A new class of antibacterials, the imidazopyrazinones, reveal structural transitions involved in DNA gyrase poisoning and mechanisms of resistance” (Nucleic Acids Research, 2018)

Legend:
[1] = target: T1, wild-type E. coli DNA gyrase (Escherichia coli, UniProt P0AES4+P0AES6); assay: biochemical; conditions: relaxed pBR322 substrate, read-out: Supercoiling IC50
Experimental: (§1) Supercoiling reactions were carried out as described previously ([24]) with minor adjustments. A total of 500 ng of relaxed pBR322 plasmid was used as a substrate for each 30 μl reaction. The amount of DNA gyrase (A2B2) added was normalized by testing various dilutions of the stock (A2B2 containing 0.5 mg/ml of each subunit) without compound. The amount sufficient to supercoil 50% of the substrate was then used for the testing of compounds. See Supplementary Figure S1 for details. This ensured a limiting amount of enzyme for every mutant tested. The individual gyrase subunits were either prepared in the lab as described previously ([25]) or purchased from Inspiralis.

[2] = target: E. coli DNA gyrase GyrA mutant EcS83L (Escherichia coli, UniProt P0AES4+P0AES6, S83L); assay: Supercoiling inhibition assay, GyrA EcS83L mutant gyrase; assay type: biochemical; conditions: for Resistance of EcS83L mutant enzyme in supercoiling inhibition: EcS83L compared to wt
Experimental: as §1
(§2) The activity of tricyclic and bicyclic IPYs (Figure 1) was tested in a supercoiling inhibition assay (Table 1) on wild-type (wt) E. coli DNA gyrase and GyrA mutants EcS83L (SaS84), EcD87A (SaE88) and EcD82N (SaD83). These residues are located in the ‘Quinolone-Resistance-Determining-Region’, frequently found mutated in resistant clinical isolates ([18],[35–38]). Based on the structures solved of FQs bound to DNA gyrase and topo IV, it has been established that both residues EcS83 and EcD87 are involved in a water–metal–ion bridge that is important for the stabilization of the ternary complex, explaining the resistance to FQs observed when these residues are mutated ([15–16],[23],[29],[39]).

[3] = target: E. coli DNA gyrase GyrA mutant EcD82N (Escherichia coli, UniProt P0AES4+P0AES6, D82N); assay: Supercoiling inhibition assay, GyrA EcD82N mutant gyrase; assay type: biochemical
Experimental: as §1, §2

[4] = target: E. coli DNA gyrase GyrA mutant EcD87A (Escherichia coli, UniProt P0AES4+P0AES6, D87A); assay: Supercoiling inhibition assay, GyrA EcD87A mutant gyrase; assay type: biochemical
Experimental: as §1, §2

[5] = target: T2, Escherichia coli wt gyrase (Escherichia coli, UniProt P0AES4+P0AES6); assay type: biochemical; conditions: 8 mM EDTA, no ATP; disappearance of linear double-strand cleavage
Experimental: (§3) A total of 500 ng of relaxed pBR322 plasmid was used as a substrate for each 30 μl reaction.
Figure 6.

ΔTolC E. coli = test system: ΔTolC E. coli; set-up: method as in Jeannot et al. In revision in J Med Chem; conditions: ref Jeannot et al. In revision in J Med Chem; cited from earlier work
[6] = target: T1, wild-type E. coli DNA gyrase; assay type: biochemical; conditions: purified E. coli DNA gyrase, linear plasmid DNA
Experimental: as §3

[7] = target: T2, Escherichia coli wt gyrase; assay type: biochemical; conditions: 25°C, presence vs absence of ATP
Experimental: The reactions were carried out either in the presence or absence of ATP for both compounds.
The top panels show the results of cleavage assays with various times allowed for the formation of the cleavage complexes as indicated. The experiment was performed in the presence and the absence of ATP as indicated. […] Approximately 400 ng of A2B2Escherichia coli wt gyrase was used in each assay.

Cn1cc(-c2ccc(NC(=O)Cc3ccc(Cl)cc3)cc2)n2ccnc2c1=O [b2]
IC50 [1]: 5.2 µM | IC50 [2]: 11 µM | Resistance of EcS83L mutant enzyme in supercoiling inhibition [2]: less active against EcS83L

N[C@H]1CCN(c2cc3c(cc2F)n2ncnc2c(=O)n3C2CC2)C1 [t2]
IC50 [1]: 1.7 µM | IC50 [3]: 4 to 20 µM | Resistance of EcD82N mutant enzyme in supercoiling inhibition ([3]; EcD82N compared to wt): high resistance | IC50 [4]: 1.7 µM | Resistance of EcD87A mutant enzyme in supercoiling inhibition ([4]; EcD87A compared to wt): low to no resistance | IC50 [2]: 9.5 µM | Resistance of EcS83L mutant enzyme in supercoiling inhibition [2]: partial resistance

N[C@H]1CCN(c2cc3c(cc2F)n2ccnc2c(=O)n3C2CC2)C1 [t1]
Resealing of stabilized cleavage by EDTA [5]: slower | Antibacterial activity ranking on ΔTolC E. coli (ΔTolC E. coli): most active tricyclic IPY | Level of double-stranded cleavage induced [6]: comparable to those obtained with ciprofloxacin | IC50 [1]: 0.5 µM | Effect of ATP on rate of appearance of linear DNA (cleavage) [7]: greatly stimulated | IC50 [3]: 9.4 µM | IC50 [4]: 0.5 µM | IC50 [2]: 3.7 µM | Increase in supercoiling IC50 with EcS83L mutant compared to wt ([2]; EcS83L vs wild-type): ~7 fold

O=C(Cc1ccccc1)Nc1ccc(-c2cn(-c3ccc(O)cc3)c(=O)c3nccn23)cc1 [b1, N-{4-[7-(4-hydroxyphenyl)-8-oxo-7,8-dihydroimidazo[1,2-a]pyrazin-5-yl]phenyl}-2-phenylacetamide]
IC50 [1]: 2.6 µM | IC50 [2]: 1 µM | Resistance of EcS83L mutant enzyme in supercoiling inhibition [2]: improved activity toward the EcS83L mutant enzyme compared to the wt
